Experimental data reported in article PMC3532212 (PLoS ONE, 2012).

Experiments:
[1] = Plasma concentrations in repeat-dosing study, satellite rats; format: in vivo, rat; conditions: for concentration at 4 h / concentration at 8 h / concentration at 24 h: male, Sprague Dawley, rat, plasma, po, mean±SEM; for Plasma concentration at Tmax (4 hrs) / Terminal plasma concentration at Tmax: satellite rats; for Plasma concentration at Tmax (4 hrs): day 1; for Terminal plasma concentration at Tmax: last day of study
Experimental: Mean arterial pressure was assessed in conscious, freely moving male Sprague Dawley rats (n = 6–8/group; Charles River) instrumented with telemetry transmitters (DSI-Ponemah) and housed in metabolism cages as previously described, [26]. Tested compounds were solubilized in a 0.5% Methylcellulose/0.015% Tween 80 vehicle that was also dosed alone (p.o./QD, 5 mL/kg) as a control in the study. FTY720 was administered p.o. at 0.3, 1.0, 3.0, 10.0 mg/kg p.o. as a single dose or p.o./QD at 0.5, 1.5, and 5.0 mg/kg in a chronic study. BAF312 was administered p.o/QD at 0.3, 3.0, and 30 mg/kg as a single dose and in a chronic study. Mean arterial pressure and heart rate are shown as 1-hr and/or 24-hr mean values±SEM as described in the results. Blood samples in satellite rats were withdrawn at various timepoints as described in the results for analysis of plasma concentrations of the parent compound and, in the case of FTY720, also the phosphorylated metabolite, (S)-FTY720-P. Statistical analysis for the single-dose acute studies was based on one-way ANOVA to compare the treatment groups vs. vehicle for each time period after dosing (0–24 hrs, 24–48 hrs, and 48–72 hrs); statistical significance (p<0.05) was detected by Dunnett’s post-hoc test to compare treatment with vehicle controls. The statistical analysis in the chronic studies were based on one-way ANOVA with repeated measures to compare the treatment arms; statistical significance (p<0.05) was detected by Dunnett’s post-hoc test to compare treatment with vehicle controls.

anesthetized rats = assay: Anesthetized rat cardiovascular study (mean arterial pressure, heart rate); format: in vivo
Experimental: (§1) The cardiovascular effects of FTY720 and BAF312 were tested in anesthetized rats (180–200 g). In brief, male Sprague Dawley rats (Charles River) were anesthetized with Inactin (110 mg/kg i.p.) and a tracheotomy performed. The femoral artery and veins were catheterized for measurement of mean arterial pressure and heart rate, collection of blood samples at 20-min intervals (0.2 mL/sample), and for compound infusion/hydration as previously described, [24]; blood samples were also withdrawn in vehicle-treated control rats. FTY720, infused as a hydrochloride salt (0.1, 0.3, 1.0 mg/kg/20-min free base equivalent solubilized in a 100% PEG-400 vehicle), or BAF312 (0.5, 1.5, 5.0 mg/kg/20-min solubilized in a 100% PEG-400 vehicle) were administered via three escalating 20-min infusions (0.011 mL/min) followed by a 1-hr post-treatment period. A blood sample was withdrawn at 20, 40, 60, and 120-minutes for analysis of plasma concentrations of the parent compound, and in the case of FTY720, also the phosphorylated metabolite, (S)-FTY720-P. Statistical significance (p<0.05) was based on a t-test comparing treatment change from baseline (baseline was defined as the period from −30 to 0 minutes) vs. vehicle controls change from baseline at each timepoint without adjustment for multiple comparisons. In a separate group of anesthetized rats in which left ventricular (LV) contractility was also recorded with a Millar pressure transducer introduced into the left ventricle, BAF312 was infused in the same dosing regimen as the studies described above (0.5, 1.5, 5.0 mg/kg/20-min solubilized in a 100% PEG-400 vehicle) and effects on LV dP/dtmax were recorded.

human S1P4 = target: T1, human S1P4 (Homo sapiens, UniProt O95977); assay: B arrestin recruitment assay, Tango EDG6-bla U2OS cells; format: cell-based
T1 construct: host or cells: U2OS (Tango EDG6-bla)
T1 sequence (O95977 1-384): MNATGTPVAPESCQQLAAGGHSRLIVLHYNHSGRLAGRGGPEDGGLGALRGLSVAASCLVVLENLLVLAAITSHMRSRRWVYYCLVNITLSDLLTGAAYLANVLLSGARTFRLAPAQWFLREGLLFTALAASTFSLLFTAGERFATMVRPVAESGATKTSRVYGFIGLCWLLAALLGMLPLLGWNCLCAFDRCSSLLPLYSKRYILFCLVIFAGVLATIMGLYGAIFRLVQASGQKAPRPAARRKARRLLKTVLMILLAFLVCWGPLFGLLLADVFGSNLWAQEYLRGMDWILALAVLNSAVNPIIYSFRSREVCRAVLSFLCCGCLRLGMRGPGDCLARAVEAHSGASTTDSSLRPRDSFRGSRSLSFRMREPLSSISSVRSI
Experimental: Tango™ EDG1-bla U2OS cells (Human S1P1), Tango™ EDG3-bla U2OS cells (human S1P3), Tango™ EDG6-bla U2OS cells (human S1P4) and Tango™ EDG8-bla U2OS cells (human S1P5) cell lines were cultured and assayed according to manufacturers instructions with one modification; agonists incubated on the cells for 18 hours prior to addition of the GenBlazer substrate. Final DMSO concentration in the assay is 1%.

[2] = Plasma concentrations during escalating i.v. infusion in anesthetized rats; format: in vivo; conditions: male, Sprague Dawley, plasma, iv, anesthetized rat, BAF312 i.v.
Experimental: as §1

CCc1cc(/C(C)=N/OCc2ccc(C3CCCCC3)c(C(F)(F)F)c2)ccc1CN1CC(C(=O)O)C1 [BAF312]
concentration at 4 h ([1]; 0.3 mg/kg/day, BAF312 0.3 mg/kg/d p.o., Terminal (last day), 4 hr post-dose): 81 ± 8 nM | concentration at 8 h ([1]; 0.3 mg/kg/day, BAF312 0.3 mg/kg/d p.o., Terminal (last day), 8 hr post-dose): 54 ± 7 nM | concentration at 24 h ([1]; 0.3 mg/kg/day, BAF312 0.3 mg/kg/d p.o., Terminal (last day), 24 hr post-dose): 13 ± 6 nM | concentration at 4 h ([1]; 0.3 mg/kg/day, BAF312 0.3 mg/kg/d p.o., Day 1, 4 hr post-dose): 91 ± 7 nM | concentration at 8 h ([1]; 0.3 mg/kg/day, BAF312 0.3 mg/kg/d p.o., Day 1, 8 hr post-dose): 65 ± 8 nM | concentration at 24 h ([1]; 0.3 mg/kg/day, BAF312 0.3 mg/kg/d p.o., Day 1, 24 hr post-dose): 0 nM | concentration at 4 h ([1]; 3 mg/kg/day, BAF312 3.0 mg/kg/d p.o., Terminal (last day), 4 hr post-dose): 735 ± 73 nM | concentration at 8 h ([1]; 3 mg/kg/day, BAF312 3.0 mg/kg/d p.o., Terminal (last day), 8 hr post-dose): 480 ± 33 nM | concentration at 24 h ([1]; 3 mg/kg/day, BAF312 3.0 mg/kg/d p.o., Terminal (last day), 24 hr post-dose): 98 ± 8 nM | concentration at 4 h ([1]; 3 mg/kg/day, BAF312 3.0 mg/kg/d p.o., Day 1, 4 hr post-dose): 685 ± 113 nM | concentration at 8 h ([1]; 3 mg/kg/day, BAF312 3.0 mg/kg/d p.o., Day 1, 8 hr post-dose): 584 ± 81 nM | concentration at 24 h ([1]; 3 mg/kg/day, BAF312 3.0 mg/kg/d p.o., Day 1, 24 hr post-dose): 103 ± 9 nM | concentration at 4 h ([1]; 30 mg/kg/day, BAF312 30.0 mg/kg/d p.o., Terminal (last day), 4 hr post-dose): 8330 ± 650 nM | concentration at 8 h ([1]; 30 mg/kg/day, BAF312 30.0 mg/kg/d p.o., Terminal (last day), 8 hr post-dose): 5280 ± 443 nM | concentration at 24 h ([1]; 30 mg/kg/day, BAF312 30.0 mg/kg/d p.o., Terminal (last day), 24 hr post-dose): 942 ± 117 nM | concentration at 4 h ([1]; 30 mg/kg/day, BAF312 30.0 mg/kg/d p.o., Day 1, 4 hr post-dose): 6400 ± 390 nM | concentration at 8 h ([1]; 30 mg/kg/day, BAF312 30.0 mg/kg/d p.o., Day 1, 8 hr post-dose): 4820 ± 617 nM | concentration at 24 h ([1]; 30 mg/kg/day, BAF312 30.0 mg/kg/d p.o., Day 1, 24 hr post-dose): 721 ± 211 nM | Plasma concentration at Tmax (4 hrs) ([1]; BAF312 0.3 mg/kg/d p.o.): 91 ± 7 nM | Terminal plasma concentration at Tmax ([1]; BAF312 0.3 mg/kg/d p.o.): 81 ± 8 nM | Plasma concentration at Tmax (4 hrs) ([1]; BAF312 3.0 mg/kg/d p.o.): 685 ± 113 nM | Terminal plasma concentration at Tmax ([1]; BAF312 3.0 mg/kg/d p.o.): 735 ± 73 nM | Plasma concentration at Tmax (4 hrs) ([1]; BAF312 30 mg/kg/d p.o.): 6395 ± 390 nM | Terminal plasma concentration at Tmax ([1]; BAF312 30 mg/kg/d p.o.): 8328 ± 650 nM | effect on mean arterial pressure (anesthetized rats; anesthetized rat, BAF312 0.5, 1.5, 5.0 mg/kg/20-min i.v.): no effect | time heart rate remained statistically reduced (anesthetized rats; anesthetized rat, BAF312 i.v. infusion): 30 min | heart rate, change from baseline (anesthetized rats; anesthetized rat, BAF312 i.v., 10-min into the first infusion period (0.5 mg/kg/20 min), vehicle −6±4): −51±8 beats/min | heart rate vs vehicle (anesthetized rats; anesthetized rat, BAF312 i.v., latter half of the 60-min infusion): not different from vehicle controls | effect on heart rate of acute i.v. infusion (anesthetized rats; anesthetized rats, FTY720 0.1, 0.3, 1.0 mg/kg/20 min or BAF312 0.5, 1.5, 5.0 mg/kg/20 min): acute bradycardia | selectivity over S1P4 (human S1P4; B arrestin EC50s): 100 fold | EC50 (human S1P4; B arrestin, 18 hours agonist incubation): 245 nM | concentration at 20 min ([2]; end of 0.5 mg/kg/20 min infusion): 1430 ± 707 nM | concentration at 40 min ([2]; end of 1.5 mg/kg/20 min infusion): 3220 ± 210 nM | concentration at 60 min ([2]; end of 5.0 mg/kg/20 min infusion): 7250 ± 517 nM | concentration at 120 min ([2]; end of 60-min post-treatment period): 2820 ± 276 nM
